Tests used:
[1] = Pharmacokinetics following oral administration of 23CPPA in rats for fourteen days; format: in vivo; conditions: for Tmax / half-life: rat, plasma
Protocol: (§1) Rats (Charles River Laboratories) received 23CPPA orally at dosages of 25 and 75 mg per kg per day for fourteen days. Samples were obtained at timed intervals following administration for measurement of plasma concentrations of 23CPPA and pharmacokinetic analysis, and tissue was histopathologically examined at the end termination of the study period.

[2] = Gastric histopathology following oral administration of 23CPPA in rats for fourteen days; format: in vivo
Protocol: as §1

[3] = Plasma 23CPPA after oral graduated doses of nonformulated 23CPPA to normal men; format: in vivo
Protocol: Plasma concentrations of 23CPPA were measured in samples obtained at timed intervals after oral administration of graduated doses of nonformulated 23CPPA to normal men.

[4] = pKa (acid dissociation constant); format: physicochemical; conditions: pharmaceutically acceptable salts of 23CPPA such as potassium; read-out: pKa (logarithm of the acid dissociation constant)

O=C(O)Cc1ccccc1Nc1cccc(Cl)c1 [Granule 23CPPA, 2-[(3-chlorophenyl)amino] phenylacetic acid]
time of maximum plasma concentration of drug after administration ([1]; 25 and 75 mg per kg per day): 0.25 h
Tmax ([1]; 25 mg/kg/day for fourteen days): 0.25 h
half-life ([1]; 25 mg/kg/day for fourteen days): 2.3 h
Tmax ([1]; 75 mg/kg/day for fourteen days): 0.25 h
half-life ([1]; 75 mg/kg/day for fourteen days): 2.3 h
Gastric Histopathology: Edema/inflammation ([2]; 25 mg/kg/day for fourteen days): Edema/inflammation (20) % animals
Gastric Histopathology: Edema/inflammation ([2]; 75 mg/kg/day for fourteen days): Edema/inflammation (30) % animals
Plasma 23CPPA (peak concentration) ([3]; relative dose 1): 7 nmol/mL
Plasma 23CPPA (peak concentration) ([3]; relative dose 2): 19 nmol/mL
Plasma 23CPPA (peak concentration) ([3]; relative dose 5): 44 nmol/mL
Plasma 23CPPA (peak concentration) ([3]; relative dose 10): 64 nmol/mL
Plasma 23CPPA (peak concentration) ([3]; relative dose 15): 70 nmol/mL
Plasma 23CPPA (peak concentration) ([3]; relative dose 20): 74 nmol/mL
pKa [4]: 4
